Test results as given in patent US5004756A, “Anti-cancer activity potentiator” (priority 1988, dated 1991).
Values after ≈ are worked out from the molar mass of the structure shown. *1 amine or outer side, *2 acyl side, *3 side chain or, on linkers, in order; H or OH if unused. Where a SMILES comes first, the peptide text is derived from it. Bridges are numbered along the chain shown (N, C = ends). Roman numbers before positions name the chains, in order. [ ]: non-standard residue; d: D form. Actinocin(9to1) = Cc1c2oc3c(C)ccc(C(=O)[*:1])c3nc-2c(C(=O)[*:2])c(N)c1=O; NMeV = CN[C@H](C(=O)O)C(C)C; Sar = CNCC(=O)O

How the values were obtained:
[1] = tested on: clinically isolated human cancer cells (lung adenocarcinoma, lung squamous cell carcinoma, osteosarcoma, ovarian carcinoma); assay: Anti-tumor activity on clinically isolated human cancer cells, morphological changes (A-I Part 2); type: cell-based
Method: Lung adenocarcinoma, lung squamous cell carcinoma, osteosarcoma and ovarian carcinoma were selected as clinically isolated human cancer cells, and the anti-tumor activities of various drugs were examined. Specifically, various tumor tissues were individually cut to thin pieces by a razor, and by washing in saline by using a 1 mm mesh, the connective tissues were removed. The resulting solution was centrifuged at 1000 rpm for 1 minute to remove necrotizing substances. Washing with saline gave tumor cells.
They were incubated at 37° for 4 to 8 hours. Thereafter, pumping was carried out to disperse the tissue pieces. Then, centrifugation at 1000 rpm for 5 minutes, cell coating and Giemsa staining were performed. The anti-tumor activity of each drug was examined on the basis of observation of the morphological changes of the tumor cells under a microscope.
The experiment was conducted on two examples of each tumor cells (total 8 examples).

V79/ADM [2] = assay: Colony formation (proliferation) inhibition, ADM-resistant Chinese hamster cells (A-I Part 1); type: cell-based
Method: (§1) Sensitive cell line V79/S and ADM-resistant cell line V79/ADM of the Chinese hamster were used, and sensitive cell line PLC/S and cholchicin-resistant cell line PLC/Col, as human hepatoma cells.
(§2) The sensitive cell lines (400 cells) or the resistant cell lines (600 cells) were each incubated for 24 hours in 10 ml of Eagle's MEM medium containing 10% bovine serum. Each of the drugs indicated in Table 1 below was dissolved in ethanol, and 50 microliters of the resulting solution was added to the medium. The incubation was further carried out for 9 days. The concentration of the drug which inhibits 50% of the colony formation (proliferation) of the tumor cells was calculated.
(§3) V79/S and V79/ADM were tested by using all of the drugs described above, but PLC/S and PLC/Col were tested by using only the malate of formula (I), adriamycin and peplomycin.
(§4) The concentrations (micrograms/ml) required to inhibit 50% of the proliferation of the tumor cells, expressed by IC50, are shown in Table 1.

V79/ADM [3] = assay: Anti-cancer activity potentiating action, colony formation, V79/ADM resistant cells (A-III); type: cell-based, Chinese hamster; settings: for IC50: Cricetulus griseus
Method: (§5) The anti-cancer activity potentiating action of the malate of formula (I) was examined using Chinese hamster cells (sensitive cell line V79/S and ADM-resistant cell line V79/ADM), human hepatoma cells (sensitive cell line PLC/S and colchicin-resistant cell line PLC/Col) and mouse leukemia cells (sensitive cell line L5178Y/S) and aclarubicin-resistant cell line L5178Y/ACR).
(§6) Of these tumor cells, the sensitive cells (400 cells) and the resistant cells (600 cells) were each incubated in 10 ml of Eagle's MEM medium containing 10% bovine serum for 24 hours, and then each of the test drugs indicated in Table 6 was added. Thereafter, the incubation was carried out for 9 days. The concentration (IC50 : micrograms/ml) of the test drug required to inhibit 50% of the colony formation (proliferation) of the tumor cells was calculated.
(§7) (A) Chinese hamster V79 cells
(§8) As anti-cancer agents, there were used adriamycin (ADM), aclarubicin (ACR), actinomycin D (ACD), 5-fluorouracil (5-FU), cytarabin (Ara-C), cisplatin (CDDP), methotrexate (MTX), mitomycin C (MMC), nimustine (ACNU), mitoxantrone, etoposide ([…]), vincristine (VCR), bleomycin (BLM) and peplomycin (PEP). For the sensitive cells, the anti-cancer agents were used in combination with 10 micrograms/ml of the malate of formula (I), and for the resistant cells, the anti-cancer agents were used in combination with the malate of formula (I) 3 micrograms/ml, 5 micrograms/ml, and 10 micrograms/ ml.

V79/S [4] = assay: Anti-cancer activity potentiating action, colony formation, V79/S parent cells (A-III); type: cell-based, Chinese hamster; settings: for IC50: Cricetulus griseus
Method: as §5, §6, §7, §8

V79/S [5] = assay: Colony formation (proliferation) inhibition, sensitive Chinese hamster cells (A-I Part 1); type: cell-based
Method: as §1, §2, §3, §4

[6] = tested on: P388 mouse leukemia cells; assay: Life prolongation of BDF1 mice with P388 leukemia, combination with CPA; type: in vivo, mouse (male BDF1); settings: for Number of surviving animals: 30 days
Method: Male BDF1 mice having a body weight of 20±2 g, 6 per group, were used. P388 mouse leukemia cells (one week after transplantation) as tumor cells were washed with 0.9% saline and suspended in saline so that the number of the cells reached 5×10^6 /m. The suspension was intraperitoneally administered to the mice at a rate of 0.2 ml (10^6 cells) per mouse.
Twenty-four hours after the transplantation of tumor cells, the malate of formula (I) and cyclophosphamide ([…]) were successively administered intraperitoneally once to the mice, and the life prolongation rate of the mice in each group was determined.
The malate of formula (I) was used after suspending it and Tween 80 at a ratio of 1:5 to saline, and this suspension was diluted with a solution of Tween 80 in the same concentration. CPA, on the other hand, was used as a solution in saline.
CPA (50 mg/kg and 100 mg/kg) and the malate of formula (I) (10 mg/kg and 20 mg/kg) were administered singly or in combination, and the life prolongation rate was determined.

[7] = read-out: IC50, anti-cancer agent alone
[8] = read-out: IC50 in combination with compound (I)
[9] = V79/S, with compound (I) 10 μg/ml
[10] = V79/ADM, with compound (I) 5 μg/ml
[11] = V79/ADM, alone, Table 6, read-out: IC50, anti-cancer agent alone
[12] = V79/S, alone, Table 6, read-out: IC50, anti-cancer agent alone
[13] = V79/S, with compound (I) 10 μg/ml, read-out: IC50 in combination with compound (I)

## Cc1c2oc3c(C)ccc(C(=O)N[C@@H]4C(=O)N[C@H](C(C)C)C(=O)N5CCC[C@H]5C(=O)N(C)CC(=O)N(C)[C@@H](C(C)C)C(=O)O[C@@H]4C)c3nc-2c(C(=O)N[C@@H]2C(=O)N[C@H](C(C)C)C(=O)N3CCC[C@H]3C(=O)N(C)CC(=O)N(C)[C@@H](C(C)C)C(=O)O[C@@H]2C)c(N)c1=O [ACD, actinomycin D] (I: T[dV]P[Sar][NMeV] / II: T[dV]P[Sar][NMeV]; ester I:1-I:C, II:1-II:C; linker I:N-II:N via Actinocin(9to1))
[1]; 0.01 μg/ml
  Efficacy ratio (rated significant by Fisher's test): 0/8
V79/ADM [2]; Cricetulus griseus, 216 h
  IC50: 0.28 µg/mL (≈ 0.223 µM)
V79/ADM [3]; [7]
  IC50: 0.28 µg/mL
V79/ADM [3]; [8]
  IC50: 0.0063 µg/mL
V79/ADM [3]; V79/ADM, with compound (I) 10 μg/ml
  Potentiation activity: 44.4 times
V79/S [4]; [7]
  IC50: 0.017 µg/mL
V79/S [4]; [8]
  IC50: 0.0032 µg/mL
V79/S [4]; [9]
  Potentiation activity: 5.3 times
V79/S [5]; Cricetulus griseus, 216 h
  IC50: 0.017 µg/mL (≈ 0.0135 µM)

## Cc1ncc(CNC(=O)N(CCCl)N=O)c(N)n1 [ACNU, nimustine]
[1]; 2.0 μg/ml
  Efficacy ratio (rated significant by Fisher's test): 3/8
V79/ADM [3]; [7]
  IC50: 10 µg/mL
V79/ADM [3]; [8]
  IC50: 3.1 µg/mL
V79/ADM [3]; [10]
  Potentiation activity: 3.20 times
V79/S [4]; [7]
  IC50: 7.6 µg/mL
V79/S [4]; [8]
  IC50: 5.4 µg/mL
V79/S [4]; [9]
  Potentiation activity: 1.4 times

## Nc1ccn([C@@H]2O[C@H](CO)[C@@H](O)[C@@H]2O)c(=O)n1 [Ara-C, cytarabin]
V79/ADM [3]; [11]
  IC50: 220 nM
V79/ADM [3]; V79/ADM, with compound (I) 5 μg/ml, read-out: IC50 in combination with compound (I)
  IC50: 35 nM
V79/ADM [3]; [10]
  Potentiation activity: 6.3 times
V79/S [4]; [12]
  IC50: 76 nM
V79/S [4]; [13]
  IC50: 54 nM
V79/S [4]; [9]
  Potentiation activity: 1.4 times

## [NH2][Pt]([NH2])([Cl])[Cl] [CDDP, cisplatin]
[1]; 0.5 μg/ml
  Efficacy ratio (rated significant by Fisher's test): 4/8
V79/ADM [2]; V79/ADM, 9 days, Table 1
  IC50: 0.32 µg/mL
V79/ADM [3]; V79/ADM, alone, Table 6
  IC50, anti-cancer agent alone: 0.32 µg/mL
V79/ADM [3]; [10]
  IC50 in combination with compound (I): 0.13 µg/mL
  Potentiation activity: 2.5 times
V79/S [4]; V79/S, alone, Table 6
  IC50, anti-cancer agent alone: 0.37 µg/mL
V79/S [4]; [9]
  IC50 in combination with compound (I): 0.27 µg/mL
  Potentiation activity: 1.4 times
V79/S [5]; V79/S, 9 days, Table 1
  IC50: 0.37 µg/mL

## O=P1(N(CCCl)CCCl)NCCCO1 (centres unmarked) [CPA, cyclophosphamide]
[6]; CPA 50 mg/kg i.p.
  MST (medium survival time): 20.3
  T/C vs control: 201%
  Number of surviving animals: 0/6
[6]; CPA 50 mg/kg i.p. (reference group)
  T/C vs CPA alone: 100%
[6]; CPA 100 mg/kg i.p.
  MST (medium survival time): 24.0
  T/C vs control: 238%
  Number of surviving animals: 1/6
[6]; CPA 100 mg/kg i.p. (reference group)
  T/C vs CPA alone: 100%

## O=P1(N(CCCl)CCCl)NCCCO1 (centres unmarked) [CPM]
[1]; 10 μg/ml
  Efficacy ratio (rated significant by Fisher's test): 3/8

## COC(COC(N)=O)C1=C(N2CC2)C(=O)C(C)=C(N2CC2)C1=O (centres unmarked) [CQ, carboquone]
[1]; 0.1 μg/ml
  Efficacy ratio (rated significant by Fisher's test): 1/8

## COc1cc([C@@H]2c3cc4c(cc3[C@@H](O[C@@H]3O[C@@H]5CO[C@@H](C)O[C@H]5[C@H](O)[C@H]3O)[C@H]3COC(=O)[C@H]23)OCO4)cc(OC)c1O [Etoposide, etoposide]
V79/ADM [3]; [11]
  IC50: > 20 µg/mL
V79/ADM [3]; V79/ADM, with compound (I) 3 μg/ml, read-out: IC50 in combination with compound (I)
  IC50: 7.4 µg/mL
V79/ADM [3]; V79/ADM, with compound (I) 3 μg/ml
  Potentiation activity: 2.7 times
V79/S [4]; [12]
  IC50: 0.27 µg/mL
V79/S [4]; [13]
  IC50: 0.098 µg/mL
V79/S [4]; [9]
  Potentiation activity: 2.8 times
